In one assay the target is Pim2 kinase (Homo sapiens, UniProt Q9P1W9). Briefly: Pim2 ATP depletion assay.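 Further: Luciferase-based luminescent readout of ATP remaining after PIM2 phosphorylates a BAD peptide, final 5 nM enzyme, 4 µM ATP, 10 µM peptide, 2.5% DMSO, run to roughly half ATP consumption.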 Type of assay: biochemical.
The target in another assay is Pim3 kinase (Homo sapiens, UniProt Q86V86). The assay can be described thus: Pim3 ATP depletion assay. It counts as biochemical.
For another assay, the target named is Pim1 kinase (Homo sapiens, UniProt P11309). Briefly: Pim1 ATP depletion assay.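 Further: Luciferase-luciferin luminescence readout of residual ATP after PIM1 transfers phosphate to a peptide substrate, 40 µM ATP added, reaction run to roughly half ATP consumption.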 Type of assay: biochemical. Conditions: Pim1 ATP depletion assay.
Pim1 kinase, sequence (P11309 whole entry): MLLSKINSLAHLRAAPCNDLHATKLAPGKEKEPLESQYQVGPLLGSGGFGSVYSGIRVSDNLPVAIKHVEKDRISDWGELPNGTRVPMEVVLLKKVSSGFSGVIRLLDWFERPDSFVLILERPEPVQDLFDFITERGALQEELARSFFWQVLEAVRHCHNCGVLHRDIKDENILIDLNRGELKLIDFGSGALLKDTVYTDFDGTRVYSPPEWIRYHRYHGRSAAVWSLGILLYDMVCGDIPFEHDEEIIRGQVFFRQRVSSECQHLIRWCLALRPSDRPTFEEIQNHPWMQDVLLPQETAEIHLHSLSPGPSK
The next assay relates to HEL 92.1.7 cells. The assay can be described thus: Cell proliferation assay (CellTiter-Glo), HEL 92.1.7. It counts as cell-based. Conditions: Homo sapiens, read-out: EC50 (μM) HEL 92.1.7. As to the method:
HEL 92.1.7 cells (ATTC No. TIB-180, an erythroleukemia line derived from malignant peripheral blood), MV4-11 cells (ATCC No. CRL-9591, a human acute monocytic leukemia line) and PC3 cells (ATCC No. CRL-1435, a human prostatic adenocarcinoma line) were cultured in RPMI1640 supplemented with 10% FBS, sodium pyruvate and antibiotics. Cells were plated in the same medium at a density of 1000 cells per well into 96 well tissue culture plates, with outside wells vacant, on the day of assay.
Test compounds supplied in DMSO were diluted into DMSO at 500 times the desired final concentrations before dilution into culture media to 2 times final concentrations. Equal volumes of 2× compounds were added to the cells in 96 well plates and incubated at 37° C. for 3 days.
After 3 days plates were equilibrated to room temperature and equal volume of CellTiter-Glow Reagent (Promega) was added to the culture wells. The plates were agitated briefly and luminescent signal was measured with luminometer. The percent inhibition of the signal seen in cells treated with DMSO alone vs. cells treated with control compound was calculated and used to determine EC50 values (i.e., the concentration of a test compound that is required to obtain 50% of the maximum effect in the cells) for tested compounds, as shown in Example 763.
(ATP-based viability assays read luminescence as a measure of living cells.)

Assay [1] concerns the target T1, human full length PKCE enzyme (Homo sapiens, UniProt Q02156).
T1 construct: human full length PKCE enzyme purchased from InVitrogen; purchased InVitrogen
T1 sequence (Q02156 1-737): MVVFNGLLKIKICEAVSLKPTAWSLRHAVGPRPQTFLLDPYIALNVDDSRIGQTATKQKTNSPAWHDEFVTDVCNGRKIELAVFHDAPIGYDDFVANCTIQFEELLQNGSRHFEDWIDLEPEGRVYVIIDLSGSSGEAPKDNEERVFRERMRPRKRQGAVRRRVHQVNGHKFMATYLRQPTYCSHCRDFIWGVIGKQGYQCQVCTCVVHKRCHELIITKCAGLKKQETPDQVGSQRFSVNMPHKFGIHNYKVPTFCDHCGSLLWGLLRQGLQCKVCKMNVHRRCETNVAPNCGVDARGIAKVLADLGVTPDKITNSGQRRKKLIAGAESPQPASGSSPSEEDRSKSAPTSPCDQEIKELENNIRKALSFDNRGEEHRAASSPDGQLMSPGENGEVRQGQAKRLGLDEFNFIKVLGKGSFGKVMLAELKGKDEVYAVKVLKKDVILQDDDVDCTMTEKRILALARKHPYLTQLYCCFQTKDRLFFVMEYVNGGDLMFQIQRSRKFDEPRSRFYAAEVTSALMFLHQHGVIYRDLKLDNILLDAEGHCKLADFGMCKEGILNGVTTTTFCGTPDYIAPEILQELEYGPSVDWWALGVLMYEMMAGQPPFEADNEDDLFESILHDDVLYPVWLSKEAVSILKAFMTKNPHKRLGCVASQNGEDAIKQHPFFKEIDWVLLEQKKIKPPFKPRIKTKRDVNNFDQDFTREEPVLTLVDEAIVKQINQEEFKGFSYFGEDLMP
Briefly: In vitro PKCE assay. Type of assay: biochemical. Conditions: 10 nM enzyme, 40 uM peptide substrate, 20 uM ATP, KinaseGlo Plus readout; read-out: PKCε IC50.

A further assay deals with KDR kinase (Homo sapiens, UniProt P35968). Briefly: KDR AlphaScreen assay. Conditions: KDR IC50 (μM). On the technique in general: In Alpha technology, singlet oxygen from a donor bead excites a nearby acceptor bead.
KDR kinase, sequence (P35968 20-1356): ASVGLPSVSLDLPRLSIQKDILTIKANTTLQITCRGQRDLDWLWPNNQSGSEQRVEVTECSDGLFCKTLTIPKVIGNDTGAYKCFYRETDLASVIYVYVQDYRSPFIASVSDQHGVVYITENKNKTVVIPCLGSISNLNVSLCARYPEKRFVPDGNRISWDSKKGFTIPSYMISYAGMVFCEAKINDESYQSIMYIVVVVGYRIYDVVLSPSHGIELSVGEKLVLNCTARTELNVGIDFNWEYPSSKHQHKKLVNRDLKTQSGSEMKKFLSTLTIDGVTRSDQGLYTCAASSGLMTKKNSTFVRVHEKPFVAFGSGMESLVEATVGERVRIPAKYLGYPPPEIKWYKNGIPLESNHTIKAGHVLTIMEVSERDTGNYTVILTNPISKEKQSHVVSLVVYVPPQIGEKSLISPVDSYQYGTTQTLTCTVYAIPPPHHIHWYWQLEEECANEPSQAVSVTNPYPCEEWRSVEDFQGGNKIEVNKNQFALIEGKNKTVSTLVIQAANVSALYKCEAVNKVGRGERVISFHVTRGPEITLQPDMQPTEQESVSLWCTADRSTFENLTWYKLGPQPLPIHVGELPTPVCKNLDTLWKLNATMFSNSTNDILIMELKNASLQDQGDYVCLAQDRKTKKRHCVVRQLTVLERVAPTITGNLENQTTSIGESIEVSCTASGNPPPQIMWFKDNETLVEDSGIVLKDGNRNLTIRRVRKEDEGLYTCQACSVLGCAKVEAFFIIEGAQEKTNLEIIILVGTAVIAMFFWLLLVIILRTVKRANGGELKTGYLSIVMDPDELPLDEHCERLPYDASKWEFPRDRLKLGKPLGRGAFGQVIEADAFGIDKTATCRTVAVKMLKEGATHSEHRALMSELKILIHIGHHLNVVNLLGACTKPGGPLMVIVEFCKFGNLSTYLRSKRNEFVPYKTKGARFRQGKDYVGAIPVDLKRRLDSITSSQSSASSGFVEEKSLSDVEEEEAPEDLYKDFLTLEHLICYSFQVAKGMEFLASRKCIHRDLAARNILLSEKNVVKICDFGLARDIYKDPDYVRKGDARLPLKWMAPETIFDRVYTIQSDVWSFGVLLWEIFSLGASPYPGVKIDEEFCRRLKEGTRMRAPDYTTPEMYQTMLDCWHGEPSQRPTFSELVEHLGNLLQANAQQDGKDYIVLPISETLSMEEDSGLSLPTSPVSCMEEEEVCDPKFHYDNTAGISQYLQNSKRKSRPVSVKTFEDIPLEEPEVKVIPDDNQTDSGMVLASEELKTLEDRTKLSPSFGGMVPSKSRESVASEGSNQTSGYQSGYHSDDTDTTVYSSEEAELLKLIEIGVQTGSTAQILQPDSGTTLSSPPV

Where two headings read alike, the source gives them in different places.

Pim2 kinase, sequence (Q9P1W9 whole entry): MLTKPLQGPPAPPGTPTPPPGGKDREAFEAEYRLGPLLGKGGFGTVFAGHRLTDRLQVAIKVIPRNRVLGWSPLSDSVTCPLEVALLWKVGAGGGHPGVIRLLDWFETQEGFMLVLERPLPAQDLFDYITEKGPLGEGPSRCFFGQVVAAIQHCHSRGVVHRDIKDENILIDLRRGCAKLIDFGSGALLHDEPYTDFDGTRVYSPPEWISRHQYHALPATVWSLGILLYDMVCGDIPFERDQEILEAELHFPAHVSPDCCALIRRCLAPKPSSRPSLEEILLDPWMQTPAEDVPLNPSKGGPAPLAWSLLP

For the compound `Nc1ncc(Br)nc1C(=O)Nc1cnccc1N1CCCC(N)C1` (centres unmarked) [Example 181, 3-amino-N-[4-(3-aminopiperidin-1-yl)pyridin-3-yl]-6-bromopyrazine-2-carboxamide], the IC50 on Pim2 kinase (read-out: IC50 (μM) PIM2), at Pim3 kinase (read-out: IC50 (μM) PIM3) and at Pim1 kinase (read-out: IC50 (μM) PIM1) was under 1 µM in each case. For the same compound, the EC50 with HEL 92.1.7 cells is under 1 µM.

As for `CS(=O)(=O)c1ccc(-c2ccc(N)c(C(=O)Nc3cnccc3N3CCC[C@H](N)C3)n2)cc1` [Example 319, 3-amino-6-(4-methane-sulfonyl-phenyl)-pyridine-2-carboxylic acid ((S)-3-amino-3,4,5,6-tetrahydro-2H-[1,4′]bi-pyridinyl-3′-yl)-amide], the IC50 at Pim2 kinase (read-out: IC50 (μM) PIM2), at Pim3 kinase (read-out: IC50 (μM) PIM3) and at Pim1 kinase (read-out: IC50 (μM) PIM1) was under 1 µM in each case. Moreover, in the assay with HEL 92.1.7 cells, the EC50 was 1 to 5 µM.

Turning to `Cc1ccc(S(=O)(=O)N2CCCC2)cc1-c1ccc(N)c(C(=O)Nc2cnccc2N2CCC[C@H](N)C2)n1` [Example 321, 3-amino-6-[2-methyl-5-(pyrrolidine-1-sulfonyl)-phenyl]-pyridine-2-carboxylic acid ((S)-3-amino-3,4,5,6-tetrahydro-2H-[1,4′]bi-pyridinyl-3′-yl)-amide], the IC50 at Pim2 kinase (read-out: IC50 (μM) PIM2), on Pim3 kinase (read-out: IC50 (μM) PIM3) and at Pim1 kinase (read-out: IC50 (μM) PIM1) was under 1 µM in each case. Besides, the EC50 with HEL 92.1.7 cells is 1 to 5 µM.

With `Nc1ccc(-c2cc(C(=O)NC3CCCCC3)ccc2F)nc1C(=O)Nc1cnccc1N1CCC[C@H](N)C1` [Example 324, 3-amino-6-(5-cyclohexyl-carbamoyl-2-fluoro-phenyl)-pyridine-2-carboxylic acid ((S)-3-amino-3,4,5,6-tetra-hydro-2H-[1,4′]bipyridinyl-3′-yl)-amide], the IC50 on Pim2 kinase (read-out: IC50 (μM) PIM2), at Pim3 kinase (read-out: IC50 (μM) PIM3) and on Pim1 kinase (read-out: IC50 (μM) PIM1) was under 1 µM in each case. Also, in the assay on HEL 92.1.7 cells, the EC50 is under 1 µM.

As for `COC(=O)c1ccc(-c2ccc(N)c(C(=O)Nc3cnccc3N3CCC[C@H](N)C3)n2)c(F)c1` [Example 325, 4-[5-amino-6-((S)-3-amino-3,4,5,6-tetrahydro-2H-[1,4′]bi-pyridinyl-3′-ylcarbamoyl)-pyridin-2-yl]-3-fluoro-benzoic acid methyl ester], the IC50 on Pim2 kinase (read-out: IC50 (μM) PIM2), on Pim3 kinase (read-out: IC50 (μM) PIM3) and on Pim1 kinase (read-out: IC50 (μM) PIM1) was under 1 µM throughout. Further, the EC50 with HEL 92.1.7 cells lay within 1 to 5 µM.

Turning to `CCCNC(=O)c1ccc(F)c(-c2ccc(N)c(C(=O)Nc3cnccc3N3CCC[C@H](N)C3)n2)c1` [Example 326, 3-amino-6-(2-fluoro-5-propyl-carbamoyl-phenyl)-pyridine-2-carboxylic acid ((S)-3-amino-3,4,5,6-tetrahydro-2H-[1,4′]bipyridinyl-3′-yl)-amide], the half-inhibitory concentration (IC50) at Pim2 kinase (read-out: IC50 (μM) PIM2), at Pim3 kinase (read-out: IC50 (μM) PIM3) and on Pim1 kinase (read-out: IC50 (μM) PIM1) was under 1 µM throughout. Further, the EC50 in the assay on HEL 92.1.7 cells was 1 to 5 µM.

On to `CCNC(=O)c1ccc(F)c(-c2ccc(N)c(C(=O)Nc3cnccc3N3CCC[C@H](N)C3)n2)c1` [Example 327, 3-amino-6-(5-ethylcarbamoyl-2-fluoro-phenyl)-pyridine-2-carboxylic acid ((S)-3-amino-3,4,5,6-tetrahydro-2H-[1,4′]bi-pyridinyl-3′-yl)-amide], for which the IC50 at Pim2 kinase (read-out: IC50 (μM) PIM2), on Pim3 kinase (read-out: IC50 (μM) PIM3) and on Pim1 kinase (read-out: IC50 (μM) PIM1) was under 1 µM in each case. The EC50 with HEL 92.1.7 cells was in the range of 1 to 5 µM.

In the case of `CCN(CC)S(=O)(=O)c1ccc(C)c(-c2ccc(N)c(C(=O)Nc3cnccc3N3CCC[C@H](N)C3)n2)c1` [Example 329, 3-amino-6-(5-diethyl-sulfamoyl-2-methyl-phenyl)-pyridine-2-carboxylic acid ((S)-3-amino-3,4,5,6-tetra-hydro-2H-[1,4′]bipyridinyl-3′-yl)-amide], the IC50 on Pim2 kinase (read-out: IC50 (μM) PIM2), on Pim3 kinase (read-out: IC50 (μM) PIM3) and on Pim1 kinase (read-out: IC50 (μM) PIM1) was under 1 µM in each case. The EC50 in the assay with HEL 92.1.7 cells is 5 to 10 µM.

Turning to `Cc1ccc(-c2ccc(N)c(C(=O)Nc3cnccc3N3CCC[C@H](N)C3)n2)c(F)c1` [Example 432, 3-amino-6-(2-fluoro-4-methyl-phenyl)-pyridine-2-carboxylic acid ((S)-3-amino-3,4,5,6-tetra-hydro-2H-[1,4′]bipyridinyl-3′-yl)-amide], the EC50 in the assay on HEL 92.1.7 cells is 1 to 5 µM.

For `Nc1ccc(-c2cnc(N)c(C(F)(F)F)c2)nc1C(=O)Nc1cnccc1N1CCC[C@H](N)C1` [Example 482, 5,6′-Diamino-5′-trifluoromethyl-[2,3′]bipyridinyl-6-carboxylic acid (3-amino-3,4,5,6-tetrahydro-2H-[1,4′]bipyridinyl-3′-yl)-amide], the IC50 was over 25 µM in assay [1]; under 1 µM at Pim2 kinase (read-out: IC50 (μM) PIM2); under 1 µM on Pim3 kinase (read-out: IC50 (μM) PIM3); under 1 µM on Pim1 kinase (read-out: IC50 (μM) PIM1); 10 to 25 µM on KDR kinase.

As for `Nc1cc(C(F)(F)F)c(-c2ccc(N)c(C(=O)Nc3cnccc3N3CCC[C@H](N)C3)n2)cn1` [Example 483, 5,6′-Diamino-4′-trifluoromethyl-[2,3′]bipyridinyl-6-carboxylic acid (3-amino-3,4,5,6-tetrahydro-2H-[1,4′]bipyridinyl-3′-yl)-amide], the IC50 in assay [1] is 10 to 25 µM; at Pim2 kinase (read-out: IC50 (μM) PIM2), under 1 µM; at Pim3 kinase (read-out: IC50 (μM) PIM3) it was under 1 µM; at Pim1 kinase (read-out: IC50 (μM) PIM1), under 1 µM; at KDR kinase it was over 25 µM.

For `Nc1ccc(-c2ccc(N)c(C(=O)Nc3cnccc3N3CCC[C@H](N)C3)n2)c(F)n1` [Example 484, 5,6′-Diamino-2′-fluoro-[2,3′]bi-pyridinyl-6-carboxylic acid (3-amino-3,4,5,6-tetrahydro-2H-[1,4′]bipyridinyl-3′-yl)-amide], the IC50 in assay [1] was 10 to 25 µM; on Pim2 kinase (read-out: IC50 (μM) PIM2), under 1 µM; on Pim3 kinase (read-out: IC50 (μM) PIM3), under 1 µM; at Pim1 kinase (read-out: IC50 (μM) PIM1) it was under 1 µM; on KDR kinase, over 25 µM.

In the case of `COc1nc(N)ncc1-c1ccc(N)c(C(=O)Nc2cnccc2N2CCC[C@H](N)C2)n1` [Example 485, 3-Amino-6-(2-amino-4-methoxy-pyrimidin-5-yl)-pyridine-2-carboxylic acid (3-amino-3,4,5,6-tetrahydro-2H-[1,4′]bipyridinyl-3′-yl)-amide], the half-maximal inhibitory concentration (IC50) in assay [1] is over 25 µM; at Pim2 kinase (read-out: IC50 (μM) PIM2), under 1 µM; on Pim3 kinase (read-out: IC50 (μM) PIM3), under 1 µM; at Pim1 kinase (read-out: IC50 (μM) PIM1), under 1 µM; on KDR kinase, 10 to 25 µM.

In the case of `Nc1ccc(-c2cccnc2F)nc1C(=O)Nc1ccncc1N1CCCC(N)C1` (centres unmarked) [Example 552, 5-Amino-2′-fluoro-[2,3′]bi-pyridinyl-6-carboxylic acid (3-amino-3,4,5,6-tetrahydro-2H-[1,3′]bipyridinyl-4′-yl)-amide], the IC50 in assay [1] was 1 to 10 µM; at Pim2 kinase (read-out: PIM2 IC50), under 1 µM; at Pim3 kinase (read-out: PIM3 IC50), under 1 µM; on Pim1 kinase (read-out: PIM1 IC50) it was under 1 µM; against KDR kinase, 1 to 10 µM.

On to `CN1CCC(NC2CCCN(c3ccncc3NC(=O)c3nc(Br)cnc3N)C2)CC1` (centres unmarked) [Example 597, 3-amino-6-bromo-N-(4-(3-(1-methylpiperidin-4-ylamino)piperidin-1-yl)pyridin-3-yl)pyrazine-2-carboxamide], for which the IC50 was 1 to 10 µM in assay [1]; 1 to 10 µM on Pim2 kinase (read-out: PIM2 IC50); under 1 µM at Pim3 kinase (read-out: PIM3 IC50); under 1 µM at Pim1 kinase (read-out: PIM1 IC50); over 25 µM at KDR kinase.

On to `Nc1ncc(Br)nc1C(=O)Nc1cnccc1N1CCCC(NCc2ccccc2)C1` (centres unmarked) [Example 598, 3-amino-6-bromo-pyrazine-2-carboxylic acid (3-benzylamino-3,4,5,6-tetrahydro-2H-[1,4′]bi-pyridinyl-3′-yl)-amide], for which the IC50 in assay [1] is 1 to 10 µM; at Pim2 kinase (read-out: PIM2 IC50) it was 1 to 10 µM; on Pim3 kinase (read-out: PIM3 IC50), under 1 µM; on Pim1 kinase (read-out: PIM1 IC50) it was under 1 µM; against KDR kinase it was 1 to 10 µM.

As usually defined, the IC50 is the concentration at which inhibition is half-maximal. The EC50 is the midpoint of the concentration-response curve.

The values are drawn from patent publication US20140249135A1, “PIM KINASE INHIBITORS AND METHODS OF THEIR USE” (NOVARTIS AG, priority 2007, published 2014).
